Laboratory results as given in ChEMBL document CHEMBL1201862, “PubChem BioAssay data set” (2004).
Where “and” joins values, the source holds several entries; their conditions need not be identical. Equal values may be shown once.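 The compound was tested at five concentrations on cells cultured in 96-well plates, with a 48-hour exposure period. GI50 = concentration required for 50% inhibition of growth.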 Calls of active or inactive are those of the source. Cut-off read from the data, not from the text of the source: active = GI50 up to about 1.1 µM and inactive = higher.

Legend:
Test in all cases: NCI tumour cell line growth inhibition, 48 h
786-0 = system: 786-0
A498 = system: A498
A549 = system: A549
ACHN = system: ACHN
BT-549 = system: BT-549
CAKI-1 = system: CAKI-1
COLO 205 = system: COLO 205
EKVX = system: EKVX
HCC 2998 = system: HCC 2998
HCT-116 = system: HCT-116
HCT-15 = system: HCT-15
HOP-62 = system: HOP-62
HOP-92 = system: HOP-92
IGROV-1 = system: IGROV-1
K562 = system: K562
KM12 = system: KM12
LOX IMVI = system: LOX IMVI
M14 = system: M14
MCF7 = system: MCF7
MDA-MB-231 = system: MDA-MB-231
MDA-MB-435 = system: MDA-MB-435
MDA-N = system: MDA-N
MOLT-4 = system: MOLT-4
Malme-3M = system: Malme-3M
NCI-H226 = system: NCI-H226
NCI-H23 = system: NCI-H23
NCI-H460 = system: NCI-H460
NCI-H522 = system: NCI-H522
NCI/ADR-RES = system: NCI/ADR-RES
OVCAR-3 = system: OVCAR-3
OVCAR-4 = system: OVCAR-4
OVCAR-5 = system: OVCAR-5
PC-3 = system: PC-3
RPMI-8226 = system: RPMI-8226
RXF 393 = system: RXF 393
SF-268 = system: SF-268
SF-295 = system: SF-295
SF-539 = system: SF-539
SK-MEL-28 = system: SK-MEL-28
SK-MEL-2 = system: SK-MEL-2
SK-MEL-5 = system: SK-MEL-5
SK-OV-3 = system: SK-OV-3
SN12C = system: SN12C
SNB-19 = system: SNB-19
SNB-75 = system: SNB-75
SW-620 = system: SW-620
T47D = system: T47D
TK-10 = system: TK-10
U-251 = system: U-251
UACC-257 = system: UACC-257
UO-31 = system: UO-31
CCRF-CEM = system: CCRF-CEM
DU-145 = system: DU-145
HL-60 = system: HL-60
HT-29 = system: HT-29
OVCAR-8 = system: OVCAR-8
SR = system: SR
UACC-62 = system: UACC-62

## CN(C)S(=O)(=O)n1ccnc1
786-0
  GI50: > 100 µM (inactive)
A498
  GI50: > 100 µM (inactive)
A549
  GI50: > 100 µM (inactive)
ACHN
  GI50: > 100 µM (inactive)
BT-549
  GI50: > 100 µM (inactive)
CAKI-1
  GI50: > 100 µM (inactive)
COLO 205
  GI50: > 100 µM (inactive)
EKVX
  GI50: > 100 µM (inactive)
HCC 2998
  GI50: > 100 µM (inactive)
HCT-116
  GI50: > 100 µM (inactive)
HCT-15
  GI50: > 100 µM
HOP-62
  GI50: > 100 µM (inactive)
HOP-92
  GI50: > 100 µM (inactive)
IGROV-1
  GI50: > 100 µM (inactive)
K562
  GI50: > 100 µM (inactive)
KM12
  GI50: > 100 µM (inactive)
LOX IMVI
  GI50: > 100 µM (inactive)
M14
  GI50: > 100 µM (inactive)
MCF7
  GI50: > 100 µM (inactive)
MDA-MB-231
  GI50: > 100 µM (inactive)
MDA-MB-435
  GI50: > 100 µM (inactive)
MDA-N
  GI50: > 100 µM (inactive)
MOLT-4
  GI50: > 100 µM (inactive)
Malme-3M
  GI50: > 100 µM (inactive)
NCI-H226
  GI50: > 100 µM (inactive)
NCI-H23
  GI50: > 100 µM (inactive)
NCI-H460
  GI50: > 100 µM (inactive)
NCI-H522
  GI50: > 100 µM (inactive)
NCI/ADR-RES
  GI50: > 100 µM (inactive)
OVCAR-3
  GI50: > 100 µM (inactive)
OVCAR-4
  GI50: > 100 µM (inactive)
OVCAR-5
  GI50: > 100 µM (inactive)
PC-3
  GI50: > 100 µM (inactive)
RPMI-8226
  GI50: > 100 µM (inactive)
RXF 393
  GI50: > 100 µM (inactive)
SF-268
  GI50: > 100 µM (inactive)
SF-295
  GI50: > 100 µM (inactive)
SF-539
  GI50: > 100 µM (inactive)
SK-MEL-28
  GI50: > 100 µM (inactive)
SK-MEL-2
  GI50: > 100 µM (inactive)
SK-MEL-5
  GI50: > 100 µM (inactive)
SK-OV-3
  GI50: > 100 µM (inactive)
SN12C
  GI50: > 100 µM (inactive)
SNB-19
  GI50: > 100 µM (inactive)
SNB-75
  GI50: > 100 µM (inactive)
SW-620
  GI50: > 100 µM (inactive)
T47D
  GI50: > 100 µM (inactive)
TK-10
  GI50: > 100 µM (inactive)
U-251
  GI50: > 100 µM (inactive)
UACC-257
  GI50: > 100 µM (inactive)
UO-31
  GI50: > 100 µM (inactive)

## CCOc1ncn(-c2ccc(NC(=S)Nc3ncccn3)cc2)n1
A549
  GI50: 32.1 µM (inactive)
BT-549
  GI50: 20.8 µM (inactive)
CCRF-CEM
  GI50: 20 µM (inactive)
COLO 205
  GI50: 29.5 µM (inactive)
DU-145
  GI50: 66.8 µM (inactive)
EKVX
  GI50: 64 µM (inactive)
HCC 2998
  GI50: 25.9 µM (inactive)
HCT-116
  GI50: 32.5 µM (inactive)
HCT-15
  GI50: 39 µM
HL-60
  GI50: 16.2 µM (inactive)
HOP-62
  GI50: > 100 µM (inactive)
HOP-92
  GI50: 33.5 µM (inactive)
HT-29
  GI50: 13 µM (inactive)
IGROV-1
  GI50: 26.5 µM (inactive)
K562
  GI50: 25.8 µM (inactive)
KM12
  GI50: > 100 µM (inactive)
LOX IMVI
  GI50: 17.6 µM (inactive)
M14
  GI50: 31.5 µM (inactive)
MCF7
  GI50: 32.7 µM (inactive)
MDA-MB-231
  GI50: 24.8 µM (inactive)
MDA-MB-435
  GI50: 56.1 µM (inactive)
MOLT-4
  GI50: 20.1 µM (inactive)
NCI-H23
  GI50: 81.5 µM (inactive)
NCI-H460
  GI50: 41.4 µM (inactive)
NCI-H522
  GI50: 17.4 µM (inactive)
OVCAR-3
  GI50: 37.7 µM (inactive)
OVCAR-4
  GI50: 21.8 µM (inactive)
OVCAR-5
  GI50: 54.8 µM (inactive)
OVCAR-8
  GI50: 24.8 µM (inactive)
PC-3
  GI50: 46.5 µM (inactive)
RPMI-8226
  GI50: 10.6 µM (inactive)
SF-268
  GI50: > 100 µM (inactive)
SF-295
  GI50: 97.5 µM (inactive)
SF-539
  GI50: 15.4 µM (inactive)
SK-MEL-28
  GI50: 26.1 µM (inactive)
SK-MEL-5
  GI50: 18.2 µM (inactive)
SK-OV-3
  GI50: > 100 µM (inactive)
SN12C
  GI50: 51.1 µM (inactive)
SNB-19
  GI50: 54 µM (inactive)
SNB-75
  GI50: 12.1 µM (inactive)
SR
  GI50: 24 µM (inactive)
SW-620
  GI50: 54.6 µM (inactive)
T47D
  GI50: 21.7 µM (inactive)
TK-10
  GI50: 41.3 µM (inactive)
U-251
  GI50: > 100 µM (inactive)
UACC-257
  GI50: 28.9 µM (inactive)
UACC-62
  GI50: 28.8 µM (inactive)
UO-31
  GI50: 18.6 µM (inactive)

## C=CCN1C(=O)/C(=C/c2ccc(C)cc2)N=C1SC1OC(COC(C)=O)C(OC(C)=O)C(OC(C)=O)C1OC(C)=O (configuration not stated)
786-0
  GI50: 3.4 µM (inactive)
A549
  GI50: > 100 µM (inactive)
BT-549
  GI50: 25.3 µM (inactive) and 23.3 µM (inactive)
COLO 205
  GI50: 59.4 µM (inactive)
DU-145
  GI50: 33.9 µM (inactive) and > 45.3 µM (inactive)
EKVX
  GI50: 51.8 µM (inactive)
HCT-116
  GI50: 34.1 µM (inactive)
HL-60
  GI50: > 76.4 µM (inactive)
HT-29
  GI50: > 100 µM (inactive)
M14
  GI50: 68.7 µM (inactive)
MCF7
  GI50: 39.4 µM (inactive) and 34.8 µM (inactive)
MDA-MB-231
  GI50: 28.7 µM (inactive) and 27.5 µM (inactive)
MDA-N
  GI50: > 100 µM (inactive)
Malme-3M
  GI50: 39.2 µM (inactive)
OVCAR-4
  GI50: 7.83 µM (inactive)
OVCAR-5
  GI50: 53.2 µM (inactive) and > 82.8 µM (inactive)
RXF 393
  GI50: 11.6 µM (inactive) and 8.43 µM (inactive)
SF-295
  GI50: 60.1 µM (inactive)
SK-MEL-28
  GI50: > 100 µM (inactive)
SN12C
  GI50: > 100 µM (inactive)
SNB-19
  GI50: > 100 µM (inactive)
T47D
  GI50: 14.4 µM (inactive)
TK-10
  GI50: > 100 µM (inactive)
